Assay results taken from paper PMC8025548 (Carbohydrate Polymers, 2021).
Values after ≈ are worked out from the molar mass of the structure shown. Read-outs that look alike come from different tables or passages of the source.

Experiments:
[1] = SBECD-assisted equilibrium solubilization of REM, assayed by HPLC; format: physicochemical; details: for solubility at 24 h: pH 1.9
[2] = ref Larson, 2019, cited from earlier work

CCC(CC)COC(=O)[C@H](C)N[P@](=O)(OC[C@H]1O[C@@](C#N)(c2ccc3c(N)ncnn23)[C@H](O)[C@@H]1O)Oc1ccccc1 [REM, Remdesivir]
solubility at 24 h ([1]; 20 % (w/w) aqueous SBECD solution): 7600 to 9700 µg/mL (≈ 12.6 to 16.1 mM) | solubility at 24 h ([1]; 20 % aqueous SBECD solution): 8400 µg/mL (≈ 13.9 mM) | improvement of the aqueous solubility of REM ([1]; with solubilizing carbohydrate (SBECD)): 300 fold | dissolved REM ([2]; 20 % (w/w) aqueous solution of PEG-400): 3.3 mg/mL | dissolved REM ([2]; 20 % (w/w) aqueous solution of SBECD): 8.5 mg/mL | dissolved REM ([2]; 20 % (w/w) aqueous solution of Tween-80): 3.9 mg/mL
